The values that follow come from patent publication US7875604B2, “Compounds that inhibit HIV particle formation” (University of Virginia Patent Foundation, priority 2004, dated 2011).

What all share (format): cell-based
The subject of one series is HeLa. Briefly: HIV-1 Rev assay toxicity/non-specificity readout (Firefly Luciferase). To be noted: 50% inhibition of Firefly Luciferase (toxicity/non-specificity), 24 hours; read-out: TC50 (the source's name). As to the method:
The eight compounds listed in Table 1 were also tested in an assay that measured HIV-1 Rev function. The HIV-1 Rev assay is based upon the use of a reporter for detecting whether drug candidates are capable of inhibiting the function of the viral Rev protein. The reporter used for these assays is the Renilla Luciferase protein, which is an enzyme that produces detectable light when mixed with certain chemicals. For this assay, a cell line has been developed in which the production of the reporter by the cells requires the function of HIV-1 Rev. Therefore, if a drug candidate inhibits the function of Rev, it decreases the amount of the reporter produced by the cells. By using Renilla Luciferase as the reporter, the inhibition of Rev is easily detected as a decrease in the amount of light produced by the cells when mixed with the appropriate chemicals. Furthermore, the cell line for this assay has been engineered to use a second similar reporter (Firefly Luciferase) that detects whether drug candidates are toxic.
Compounds were tested in the Rev assay using the maximum high-test concentration possible based on the supplied stocks as shown in Table 3. Compounds were prepared at a 2× high-test concentration by combining drug stock with tissue culture media at a ratio of 5 μL of drug to 995 μL of media. This 2× high-test sample was subsequently serially diluted in tissue culture media using 1/2 log dilutions. This series of 2× concentrated drug was subsequently diluted 1:1 by combining with an equal volume of cells in media in the 96-well plates used for the assay. Representative data for two of the compounds is also depicted in FIG. 5.
Leptomycin B is a control compound known to inhibit Rev function.

The next series has as its system fresh human PBMCs. The series is described as follows: MTS staining for PBMC viability to measure cytotoxicity. The protocol:
For the standard PBMC assay, PHA-P stimulated cells from at least two normal donors were pooled (mixed together), diluted in fresh medium to a final concentration of 1×10^6 cells/mL, and plated in the interior wells of a 96 well round bottom microplate at 50 μL/well (5×10^4 cells/well) in a standard format developed by the Infectious Disease Research department of Southern Research Institute. Pooling (mixing) of mononuclear cells from more than one donor is used to minimize the variability observed between individual donors, which results from quantitative and qualitative differences in HIV infection and overall response to the PHA and IL-2 of primary lymphocyte populations. Each plate contains virus/cell control wells (cells plus virus), experimental wells (drug plus cells plus virus) and compound control wells (drug plus media without cells, necessary for MTS monitoring of cytotoxicity). Since HIV-1 is not cytopathic to PBMCs, this allows the use of the same assay plate for both antiviral activity and cytotoxicity measurements. Test drug dilutions were prepared at a 2× concentration in microtiter tubes and 100 μL of each concentration was placed in appropriate wells using the standard format. 50 μL of a predetermined dilution of virus stock was placed in each test well (final MOI≅0.1). The PBMC cultures were maintained for seven days following infection at 37° C., 5% CO2. After this period, cell-free supernatant samples were collected for analysis of reverse transcriptase activity as a measure of virus release. Following removal of supernatant samples, compound cytotoxicity was measured by addition of MTS to the plates for determination of cell viability. Wells were also examined microscopically and any abnormalities were noted.
At assay termination, assay plates were stained with the soluble tetrazolium-based dye MTS (CellTiter 96 Reagent, Promega) to determine cell viability and quantify compound toxicity. The mitochondrial enzymes of metabolically active cells metabolize MTS to yield a soluble formazan product. This allows the rapid quantitative analysis of cell viability and compound cytotoxicity. […] At termination of the assay, 20 μL of MTS reagent was added per well. The microtiter plates were then incubated 4-6 hrs at 37° C. The incubation intervals were chosen based on empirically determined times for optimal dye reduction. Adhesive plate sealers were used in place of the lids, the sealed plate was inverted several times to mix the soluble formazan product and the plate was read spectrophotometrically at 490/650 nm with a Molecular Devices Vmax or SpectraMaxPlus plate reader.
Compounds were tested in the PBMC assay using the maximum high-test concentration possible based on the supplied stocks which are listed in table 3. Compounds were prepared at a 2× high-test concentration by combining drug stock with tissue culture media at a ratio of 5 μL of drug to 995 μL of media. This 2× high-test sample was subsequently serially diluted in tissue culture media using 1/2 log dilutions. This series of 2× concentrated drug was subsequently diluted 1:1 by combining with an equal volume of cells in media in the 96-well plates used for the assay.

The next series relates to U1 cells. The series is described as follows: MTS staining for cell viability in U1 cell assay. The conditions noted are these: Table 6, MTS, read-out: TC50 (the source's name). In short, it runs like this:
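U1 cells plated with 5 ng/mL TNF-α (final) and compound in 1/2-log dilutions from the highest concentration the stock allowed, then cultured 3 days. Cytotoxicity read by MTS tetrazolium dye reduction at assay end. Assay dropped if Trypan Blue viability was below 70%.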

Where two headings read alike, the source gives them in different places.

Take “2-chloro-N-(4-methylphenyl)-4-(trifluoromethyl)-1,3-thazole-5-carboxamide [Compound 91161]”: the CC50 in the series with HeLa is > 39.5 µM; with fresh human PBMCs (PBMC plates with HIV-1 BR/93/021, MTS, read-out: TC50 (the source's name)), 23.3 µM; in the series with fresh human PBMCs (PBMC plates with HIV-1 NL4-3, MTS, read-out: TC50 (the source's name)), 13.5 µM; with U1 cells it was 22.3 µM.

For the compound `CCc1c(C)nc2sc(C(N)=O)c(N)c2c1C` [Compound 103833, 3-amino-5-ethyl-4,6-dimethylthieno[2,3-b]pyridine-2-carboxamide], in the series on fresh human PBMCs (human, 7 days), the CC50 is > 37.6 µM.

Regarding `Fc1ccc(Nc2ncnc3ccccc23)cc1Cl` [Compound 109020, N-(3-chloro-4-fluorophenyl)-N-(4-quinazolinyl)amine], in the series with fresh human PBMCs (human, 7 days), the CC50 is > 40.8 µM.
